Measurements: patent US10934258B2, “Materials for use in an aqueous organic redox flow battery” (Utah State University, priority 2016, dated 2021)
Converted amounts (≈) assume the structure as drawn. “And” between values parts separate entries of the source, which are not always exact repeats. Identical values can stand only once.

Experiments:
[1] = Cyclic and square wave voltammetry (redox potentials); assay type: physicochemical; details: for Exp. E1/2, first reduction: first redox couple; for Exp. E1/2, first reduction / Exp. E1/2, second reduction / redox potential (redox wave in cyclic voltammogram): 4 mM in 0.5 M NaCl; for Exp. E1/2, second reduction: second redox couple; for redox / reversible oxidation potential of catholyte: electrolyte not stated
Experimental: Electrochemical Cyclic voltammetry (CV) studies. All electrochemical CV experiments were carried out in 0.5 M NaCl electrolyte solutions. Cyclic voltammetry experiments were performed with a Gamry 1000E potentiostat. All potentials were referenced to NHE according to the known MV^2+/1+ redox couple (−0.45 V vs NHE). The working electrode (1 mm PEEK-encased glassy carbon, Cypress Systems EE040) was polished using Al2O3(BAS CF-1050, dried at 150° C. under vacuum) suspended in deionized H2O, then rinsed with deionized H2O and dried with an air flow. The reference electrode was a silver wire coated with a layer of AgCl and suspended in a solution of 0.5 M NaCl electrolyte. A glassy carbon rod (Structure Probe, Inc.) was used as the counter electrode.
Cyclic and square wave voltammetry studies: All experiments were conducted in an […], 0.5 M NaCl aqueous solution, and performed with a Gamry 1000E potentiostat. A 1 mm PEEK encased glassy carbon disk was used as the working electrode. The working electrode was polished with 0.05 micron Al2O3 powder and rinsed with deionized H2O. A glassy carbon rod was used as the counter electrode. A silver wire coated with AgCl and suspended in 3.0 M KCl electrolyte was used as the reference electrode.
The redox potentials were calculated directly versus MV which was derived from the Born-Haber method. This calculation predicts the redox potential of the viologen by comparing it to the experimentally determined potentials for MV. Square wave voltammetry was employed to most accurately measure E1/2 for the two reductions of viologen compounds (FIG. 42). The calculation of the theoretical redox potential vs MV can be simplified as shown below: […]

[2] = RDE linear sweep voltammetry with Levich and Tafel analysis; assay type: physicochemical; details: 1.0 mM in 0.5 M NaCl
Experimental: Electrochemical RDE studies: All linear sweep voltammetry (LSV) studies were conducted using a Gamry 1000E potentiostat in a three-electrode configuration, a glassy carbon disk working electrode (5 mm Teflon encased glassy carbon disk, Pine Research Instrumentation) along with a glassy carbon counter electrode and a Ag/AgCl reference electrode same as used in CV studies. Before data collection, the disk electrode was prepared using the procedure described in the CV studies. The electrode was then rotated at from 300 to 2400 rpm with an increment of 300 rpm, which was controlled by a Pine MSR rotator system. LSV scans were recorded at a rate of 5 mV/s from 0.3 V to 0.8 V vs NHE. At each rotation rate, the LSV were recorded 3 times to ensure repeatability. The limiting currents (i.e. the mass transport-limited current intensity) were taken at 0.7 V vs NHE for FcNCl and plotted over the square root of the rotation rate (rad/s). The data were fitted to yield a straight Levich plot, with the slope defined by the Levich equation (equation 1 below), where n=1 for one electron process, Faraday's constant F=96485 C/mol, electrode area A=0.1935 cm^2, FcNCl concentration Co=1.0 mM, D is diffusion coefficient, kinematic viscosity n=0.009 cm^2/s for 0.5 M NaCl solution. The calculations yielded the diffusion coefficients of FcNCl as 3.25×10^−6 cm^2/s. A plot of overpotential versus log10(iK) was constructed for the LSV data collected at […] for FcNCl where iK is the kinetic current for the oxidation of FcNCl. […] Levich plot slope=0.620nFACOD^2/3v^−1/6 (equation 1) i0=FACOk0 (equation 2)
Electrochemical RDE studies: Linear sweep voltammetry (LSV) experiments were conducted using a Gamry 1000E potentiostat with a three-electrode system. A 5 mm rotating glassy carbon disk encased in Teflon served as the working electrode. A glassy carbon rod was used as the counter electrode. A Ag/AgCl wire served as the reference electrode. The working electrode was cleaned using the same method as in the CV experiments. During the experiments, the working electrode rotated from 300 rpm to 2400 rpm at increments of 300 rpm. Three scans at each rotation rate were collected to ensure accuracy. (NPr)2V: LSV scans were conducted at a rate of 5 mV/s from 0.1 V to −1.2 V versus NHE. The limiting currents (mass transport-limited current intensity) at each rotation rate were recorded at −0.57 V and −0.95 V versus NHE. […] The slopes of these fitted lines are defined by the Levich equation, Levich Plot Slope=0.620nFAC0D^2/3v^−1/6 (equation 1)
[…] Plots of overpotential versus log10(ik) were constructed from the 2400 rpm LSV, where ik is the kinetic current of each reduction of (NPr)2V. The x-intercept of the fitted Tafel plot represents the log of the exchange current i0 that is defined by: i0=FAC0k^0 (equation 2)
where F, A, and C0 are defined above, and k^0 represents the electron transfer rate constant.
(NPr)(SPr)V, (Me)(NPr)V, (SPr)2V, and [FcN^Et]Br: LSV scans were collected and analyzed using the same techniques described for (NPr)2V.

[3] = Conductivity of the electrolyte solutions; assay type: physicochemical; design: electrolyte conductivity: unit not given here
Experimental: Chemicals and Materials. […] Deionized water was purged overnight using N2 before use. All experimental operations were conducted under a N2 atmosphere. […] UV-Vis was collected using an Ocean Optic spectrometer. Elemental analysis was done at Atlantic Microlab.

[4] = Solubility by preparing a super-saturated solution; details: for solubility: thermodynamic from solid
Experimental: Chemicals and Materials. All chemicals were purchased from Aldrich or TCI, stored in an Argon glovebox, and used directly. Solubility of substituted ferrocene compounds was measured in water by preparing a super-saturated solution in a volumetric cylinder. Deionized water was purged overnight using N2 before use. All experimental operations were conducted under a N2 atmosphere. Conductivity of the electrolyte solutions was measured using a Mettler Toledo conductivity meter at R.T. NMR studies were conducted using a Bruker 500 MHz NMR spectrometer. UV-Vis was collected using an Ocean Optic spectrometer. Elemental analysis was done at Atlantic Microlab.
Calculation of theoretical energy density: The theoretical energy density of the FcNCl/MV AORFB was calculated using equation 3 below, where n is the number of electrons involved into the cell reaction, C is the concentration of active materials, F is Faraday constant, 26.8 Ah/mol, V is the cell voltage, and 2 represents a factor considering both volumes of anolyte and catholyte. Solubility of FcNCl and MV was measured in water respectively by preparing a super-saturated solution. Similar solubility tests in water were applied for ferrocenecarboxylic acid, 1-1′-ferrocenedicarboxilic acid, ferrocenecarboxylic acid, and 1,1′-ferrocenedimethanol. Energy density (Wh/L)=nCFV/2 (equation 3)

[5] = known value, potential reference; cited from earlier work

Molecule	Exp. E1/2, first reduction [1] [V vs. NHE]	Exp. E1/2, second reduction [1] [V vs. NHE]	diffusion constant, D, first reduction ([2]; Levich)	electron transfer rate constant, k^0, first reduction ([2]; Tafel)	solubility in water, [C] [4] [mM]	solubility ([4]; water) [mM]	redox potential (redox wave in cyclic voltammogram) [1]	also measured
O=S(=O)([O-])CCC[n+]1ccc(-c2cc[n+](CCCS(=O)(=O)[O-])cc2)cc1 [(SPr)2V, 1,1′-bis[3-sulfonatopropyl]-4,4′-bipyridinium]	−0.43	−0.79	3.26×10^−6 cm^2/s	1.49e-05 cm/s	2000 (≈ 801 mg/mL)	2000 (≈ 801 mg/mL)	–	diffusion constant, D, second reduction ([2]; Levich): 2.81 × 10^−6 cm^2/s; electron transfer rate constant, k^0, second reduction ([2]; Tafel): 3.96e-05 cm/s; conductivity ([3]; 0.6 M in 1.5 M KCl): 103.2 mS/cm; solubility ([4]; saline or isotonic): 1700 mM (≈ 681 mg/mL)
[I-].[K+] [KI, reference compound]	–	–	–	–	–	–	–	redox / reversible oxidation potential of catholyte [1]: 0.65 V vs NHE
C[N+](C)(C)C[c-]1cccc1.[Cl-].[Fe+2].c1cc[cH-]c1 [FcNCl, (ferrocenylmethyl)trimethylammonium chloride]	–	–	–	–	–	~4000	0.60 V vs NHE	diffusion coefficient (oxidation) ([2]; Levich): 3.25×10^−6 cm^2/s and 3.74×10^−6 cm^2/s; electron transfer rate constant k0 (oxidation) ([2]; Tafel): 2.29e-05 cm/s and 3.66e-05 cm/s; exchange current i0 ([2]; Tafel X-intercept): 0.7 μA; electrolyte conductivity ([3]; 0.5 M in 2.0 M NaCl): 135
CC[N+](C)(C)C[c-]1cccc1.[Br-].[Fe+2].c1cc[cH-]c1 [[FcN^Et]Br, (ferrocenylmethyl)ethyldimethylammonium bromide]	–	–	–	–	–	3750	0.60 V vs NHE	–
C[N+](C)(C)CCC[c-]1cccc1.[Cl-].[Fe+2].c1cc[cH-]c1 [prop-FcNCl, (ferrocenylpropyl)trimethylammonium chloride]	–	–	–	–	–	~2200	–	–
CC1(C)CC([N+](C)(C)CCC[N+](C)(C)C)CC(C)(C)N1O [4-N^NPr-TEMPO, N^1, N^1, N^1, N^3, N^3,2,2,6,6-nonamethyl-N^3-(piperidinyloxy)propane-1,3-bis(ammonium) dichloride]	–	–	–	–	–	2300	–	redox / reversible oxidation potential of catholyte [1]: 1.06 V vs NHE
C[N+](C)(C)CCC[n+]1ccc(-c2cc[n+](CCC[N+](C)(C)C)cc2)cc1.[Br-].[Br-].[Br-].[Br-] [(NPr)2V, 1,1′-bis[3-(trimethylamonium)propyl]-4,4′-bipyridinium, tetrabromide]	−0.35	−0.72	3.88×10^−6 cm^2/s	4.32e-06 cm/s and 4.32e-05 cm/s	1600	–	–	effective redox potential (average of the two reductions) ([1]; average of −0.35 and −0.72 V): −0.54 V; diffusion constant, D, second reduction ([2]; Levich): 3.84×10^−6 cm^2/s; electron transfer rate constant, k^0, second reduction ([2]; Tafel): 2.46e-06 cm/s and 2.46e-05 cm/s; solubility in H2O [4]: 1600 mM
[Br-].[Br-].[Zn+2] [ZnBr2, reference compound]	–	–	–	–	–	–	−1.2 V vs NHE	–
CC1(C)CC([N+](C)(C)C)CC(C)(C)N1[O].[Cl-] [4-N^Me-TEMPO, N, N, N, 2,2,6,6-Heptamethylpiperidinyloxy-4-ammonium chloride]	–	–	–	–	–	–	–	redox / reversible oxidation potential of catholyte [1]: 1.06 V vs NHE; solubility in H2O [4]: 2500 mM
C[n+]1ccc(-c2cc[n+](CCC[N+](C)(C)C)cc2)cc1.[Cl-].[Cl-].[Cl-] [(Me)(NPr)V, 1′-methyl-4′-pyridinium-1-[3-(trimethylaminium)propyl]-4-pyridinium trichloride]	−0.39	−0.78	5.40 × 10^−6 cm^2/s	2.39e-05 cm/s	1800	–	–	diffusion constant, D, second reduction ([2]; Levich): 5.29 × 10^−6 cm^2/s; electron transfer rate constant, k^0, second reduction ([2]; Tafel): 1.84e-05 cm/s; solubility in H2O [4]: 1800 mM
disodium (ferrocenyl)sulfurtrioxide [FcS]	–	–	–	–	–	–	~0.77 V vs NHE and 1.0 V vs NHE	–
CC(C[N+](C)(C)C[c-]1cccc1)[N+](C)(C)C.[Br-].[Br-].[Fe+2].c1cc[cH-]c1 (centres unmarked) [FcN2, N^1-ferrocenylmethyl-N^1, N^1, N^2, N^2, N^2-pentamethylpropane-1,2-diaminium dibromide]	–	–	–	–	–	–	0.62 V vs NHE	–
C[n+]1ccc(-c2cc[n+](C)cc2)cc1 [MV, methyl viologen, reference compound]	−0.45	−0.76	2.57 × 10^−5 cm^2/s	0.00028 cm/s	2500	–	–	MV^2+/1+ redox couple used as reference [5]: −0.45 V vs NHE; solubility in 2.0 M NaCl solution ([4]; 2.0 M NaCl solution): above 2.0 M
C[N+](C)(C)CCC[n+]1ccc(-c2cc[n+](CCCS(=O)(=O)[O-])cc2)cc1.[Br-].[Br-] [(NPr)(SPr)V, 1′-[3-(trimethylammonium)propyl]-4′-pyridinium-1-[3-sulfonatopropyl]-4-pyridinium dibromide]	−0.37	−0.74	4.96 × 10^−6 cm^2/s	3.5e-05 cm/s	1600	–	–	diffusion constant, D, second reduction ([2]; Levich): 5.04 × 10^−6 cm^2/s; electron transfer rate constant, k^0, second reduction ([2]; Tafel): 2.09e-05 cm/s; solubility in H2O [4]: 1600 mM
